From ChEMBL document CHEMBL3297734, “Cationic lipid-conjugated dexamethasone as a selective antitumor agent” (Eur J Med Chem, 2014)
Activity calls are given as the source filed them. The rule behind the calls is not given here.

Assays:
CHO [1] = assay: Cytotoxicity against CHO cells after 72 hrs by MTT assay; format: cell-based; conditions: Cricetulus griseus
A549 = assay: Anticancer against human A549 cells after 72 hrs by MTT assay; format: functional, cell-based; conditions: A549, 72 h
[2] = Cytotoxicity against mouse fibroblasts after 72 hrs by MTT assay; format: cell-based; conditions: Fibroblast
HEK-293T [3] = assay: Cytotoxicity against HEK293T cells after 72 hrs by MTT assay; format: cell-based; conditions: Homo sapiens
[4] = Anticancer against mouse B16F10 cells after 72 hrs by MTT assay; format: functional, cell-based; conditions: B16-F10, 72 h
MCF7 [5] = assay: Anticancer against human MCF7 cells after 72 hrs by MTT assay; format: functional, cell-based; conditions: MCF7, 72 h
[6] = Induction of apoptosis in HEK293T cells assessed as viable cells at 10 uM after 48 hrs using FITC-annexin V-FITC/propidium iodide by flow cytometry (reference value: 98.6%); format: cell-based, HEK-293T; conditions: human, read-out: Activity
HEK-293T [7] = assay: Induction of apoptosis in HEK293T cells assessed as early apoptotic cells at 10 uM after 48 hrs using FITC-annexin V-FITC/propidium iodide by flow cytometry (reference value: 0.3%); format: cell-based; conditions: human
MCF7 [8] = assay: Induction of apoptosis in human MCF7 cells assessed as necrotic cells at 10 uM after 48 hrs using FITC-annexin V-FITC/propidium iodide by flow cytometry (reference value: 7.1%); format: functional
MCF7 [9] = assay: Induction of apoptosis in human MCF7 cells assessed as early apoptotic cells at 10 uM after 48 hrs using FITC-annexin V-FITC/propidium iodide by flow cytometry (reference value: 3%); format: functional
B16-F10 [10] = assay: Antitumor activity against mouse B16F10 cells xenografted in C57BL/6 mouse assessed as inhibition tumor growth at 20 mg/kg, ip measured after 24 days of tumor inoculation; format: functional, organism-based; design: dose 20 mg/kg
MCF7 [11] = assay: Induction of apoptosis in human MCF7 cells assessed as late apoptotic cells at 10 uM after 48 hrs using FITC-annexin V-FITC/propidium iodide by flow cytometry (reference value: 3.5%); format: functional
CHO [12] = assay: Induction of apoptosis in CHO cells assessed as late apoptotic cells at 10 uM after 48 hrs using FITC-annexin V-FITC/propidium iodide by flow cytometry (reference value: 0%); format: cell-based, Cricetulus griseus; conditions: chinese hamster
B16-F10 [13] = assay: Induction of apoptosis in mouse B16F10 cells assessed as increase in ratio of BAX/Bcl2 expression at 10 uM after 48 hrs by Western blot analysis relative to untreated control; format: functional, cell-based
B16-F10 [14] = assay: Induction of apoptosis in mouse B16F10 cells assessed as viable cells at 10 uM after 48 hrs using FITC-annexin V-FITC/propidium iodide by flow cytometry (reference value: 95.1%); format: functional; conditions: B16-F10, 48 h, read-out: Activity
B16-F10 [15] = assay: Induction of apoptosis in mouse B16F10 cells assessed as necrotic cells at 10 uM after 48 hrs using FITC-annexin V-FITC/propidium iodide by flow cytometry (reference value: 1.7%); format: functional
B16-F10 [16] = assay: Antitumor activity against mouse B16F10 cells xenografted in C57BL/6 mouse assessed as apoptotic regions at 20 mg/kg, ip measured after 24 days of tumor inoculation by VE-cadherin; format: functional, organism-based; design: dose 20 mg/kg
B16-F10 [17] = assay: Antitumor activity against mouse B16F10 cells xenografted in C57BL/6 mouse assessed as apoptotic regions at 20 mg/kg, ip measured after 24 days of tumor inoculation by TUNEL assay; format: functional, organism-based; design: dose 20 mg/kg
CHO [18] = assay: Induction of apoptosis in CHO cells assessed as early apoptotic cells at 10 uM after 48 hrs using FITC-annexin V-FITC/propidium iodide by flow cytometry (reference value: 0.1%); format: cell-based, Cricetulus griseus; conditions: chinese hamster
CHO [19] = assay: Induction of apoptosis in CHO cells assessed as necrotic cells at 10 uM after 48 hrs using FITC-annexin V-FITC/propidium iodide by flow cytometry (Rvb =6.6%); format: cell-based, Cricetulus griseus; conditions: chinese hamster
B16-F10 [20] = assay: Induction of apoptosis in mouse B16F10 cells assessed as late apoptotic cells at 10 uM after 48 hrs using FITC-annexin V-FITC/propidium iodide by flow cytometry (reference value: 2.5%); format: functional
HEK-293T [21] = assay: Induction of apoptosis in HEK293T cells assessed as necrotic cells at 10 uM after 48 hrs using FITC-annexin V-FITC/propidium iodide by flow cytometry (reference value: 0.7%); format: cell-based; conditions: human
MCF7 [22] = assay: Induction of apoptosis in human MCF7 cells assessed as viable cells at 10 uM after 48 hrs using FITC-annexin V-FITC/propidium iodide by flow cytometry (reference value: 86.4%); format: functional; conditions: MCF7, 48 h, read-out: Activity
HEK-293T [23] = assay: Induction of apoptosis in HEK293T cells assessed as late apoptotic cells at 10 uM after 48 hrs using FITC-annexin V-FITC/propidium iodide by flow cytometry (reference value: 0.4%); format: cell-based; conditions: human
B16-F10 [24] = assay: Induction of apoptosis in mouse B16F10 cells assessed as early apoptotic cells at 10 uM after 48 hrs using FITC-annexin V-FITC/propidium iodide by flow cytometry (reference value: 0.7%); format: functional
[25] = Induction of apoptosis in CHO cells assessed as viable cells at 10 uM after 48 hrs using FITC-annexin V-FITC/propidium iodide by flow cytometry (reference value: 93.3%); format: cell-based, Cricetulus griseus; conditions: chinese hamster, read-out: Activity
B16-F10 [26] = assay: Cytotoxicity against mouse B16F10 cells transfected with GR-siRNA assessed as cell viability after 48 hrs by flow cytometry; format: functional, cell-based
B16-F10 [27] = assay: Induction of apoptosis in mouse B16F10 cells assessed as up-regulation of Smac/Diablo at 10 uM after 48 hrs by Western blot analysis; format: functional, cell-based
B16-F10 [28] = assay: Induction of apoptosis in mouse B16F10 cells assessed as Akt destruction at 10 uM after 48 hrs by Western blot analysis; format: functional, cell-based
B16-F10 [29] = assay: Induction of apoptosis in mouse B16F10 cells assessed as down-regulation of JAK3/STAT3 at 10 uM after 48 hrs by Western blot analysis; format: functional, cell-based
B16-F10 [30] = assay: Induction of apoptosis in mouse B16F10 cells assessed as p53 up-regulation at 10 uM after 48 hrs by flow cytometry; format: functional, cell-based
B16-F10 [31] = assay: Induction of apoptosis in mouse B16F10 cells assessed as caspase 3 activation at 10 uM after 48 hrs by Western blot analysis; format: functional, cell-based
B16-F10 [32] = assay: Induction of apoptosis in mouse B16F10 cells assessed as caspase 9 activation at 10 uM after 48 hrs by Western blot analysis; format: functional, cell-based
B16-F10 [33] = assay: Antitumor activity against mouse B16F10 cells xenografted in C57BL/6 mouse assessed as up-regulation of P53 in tumor at 20 mg/kg, ip measured after 24 days of tumor inoculation by Western blot analysis; format: functional, organism-based; design: dose 20 mg/kg
B16-F10 [34] = assay: Cytotoxicity against mouse B16F10 cells assessed as cell viability after 48 hrs by flow cytometry in presence of RU-486 GR antagonist; format: functional, cell-based
B16-F10 [35] = assay: Antitumor activity against mouse B16F10 cells xenografted in C57BL/6 mouse assessed as down-regulation of p-Mdm2 in tumor at 20 mg/kg, ip measured after 24 days of tumor inoculation by Western blot analysis; format: functional, organism-based; design: dose 20 mg/kg
B16-F10 [36] = assay: Induction of apoptosis in mouse B16F10 cells assessed as down-regulation of XIAP at 10 uM after 48 hrs by Western blot analysis; format: functional, cell-based
B16-F10 [37] = assay: Induction of apoptosis in mouse B16F10 cells assessed as up-regulation of caspase 7 at 10 uM after 48 hrs by Western blot analysis; format: functional, cell-based
MCF7 [38] = assay: Cytotoxicity against human MCF7 cells transfected with GR-siRNA assessed as cell viability after 48 hrs by flow cytometry; format: functional, cell-based
B16-F10 [39] = assay: Antitumor activity against mouse B16F10 cells xenografted in C57BL/6 mouse assessed as reduction in angiogenesis in tumor measured as VEGRF2 expression at 20 mg/kg, ip measured after 24 days of tumor inoculation by microscopy relative to untreated control; format: functional, organism-based; design: dose 20 mg/kg

Compound | IC50 (A549) | IC50 (MCF7 [5]) | IC50 (CHO [1]) | IC50 [2] | IC50 (HEK-293T [3]) | IC50 [4] | viability at 48 h, 10 µM [6] | Activity (HEK-293T [7]) | Activity (MCF7 [8]) | Activity (MCF7 [9]) | inhibition (B16-F10 [10]) | Activity (MCF7 [11]) | Activity (CHO [12]) | Activity (B16-F10 [13]) | viability at 10 µM (B16-F10 [14]) | Activity (B16-F10 [15]) | Activity (B16-F10 [16]) | Activity (B16-F10 [17]) | Activity (CHO [18]) | Activity (CHO [19]) | other results
CCCC[N+](C)(CCCC)CCNC(=O)[C@@]1(O)[C@H](C)C[C@H]2[C@@H]3CCC4=CC(=O)C=C[C@]4(C)[C@@]3(F)[C@@H](O)C[C@@]21C | > 15 µM | > 15 µM | > 20 µM | > 20 µM | > 15 µM | > 20 µM |  |  |  |  |  |  |  |  |  |  |  |  |  |  | 
C[C@@H]1C[C@H]2[C@@H]3CCC4=CC(=O)C=C[C@]4(C)[C@@]3(F)[C@@H](O)C[C@]2(C)[C@@]1(O)C(=O)CO [DEXAMETHASONE] | > 15 µM | > 15 µM | > 20 µM | > 15 µM | > 20 µM | > 20 µM | 94.4% | 0.1% | 9.5% | 2.4% | Active | 5.9% | 0% | Active | 94.1% | 1.3% | Active | Active | 0% | 4.2% | Activity (B16-F10 [20]): 3.7%; Activity (HEK-293T [21]): 0.4%; viability at 10 µM (MCF7 [22]): 82.8%; Activity (HEK-293T [23]): 0.1%; Activity (B16-F10 [24]): 0.8%; viability at 48 h, 10 µM [25]: 95.8%
CC[N+](C)(CC)CCNC(=O)[C@@]1(O)[C@H](C)C[C@H]2[C@@H]3CCC4=CC(=O)C=C[C@]4(C)[C@@]3(F)[C@@H](O)C[C@@]21C | > 15 µM | > 15 µM | > 15 µM | > 20 µM | > 20 µM | > 20 µM |  |  |  |  |  |  |  |  |  |  |  |  |  |  | 

Further compounds by falling IC50 (A549), results first:

IC50 (A549) | IC50 (MCF7 [5]) | Compound | IC50 (CHO [1]) | IC50 [2] | IC50 (HEK-293T [3]) | IC50 [4] | viability at 48 h, 10 µM [6] | Activity (HEK-293T [7]) | Activity (MCF7 [8]) | Activity (MCF7 [9]) | inhibition (B16-F10 [10]) | Activity (MCF7 [11]) | Activity (CHO [12]) | Activity (B16-F10 [13]) | viability at 10 µM (B16-F10 [14]) | Activity (B16-F10 [15]) | Activity (B16-F10 [16]) | Activity (B16-F10 [17]) | Activity (CHO [18]) | Activity (CHO [19]) | other results
14.8 µM | > 15 µM | CCCCCCCCCCCCCCCC[N+](C)(CCCCCCCCCCCCCCCC)CCNC(=O)[C@@]1(O)[C@H](C)C[C@H]2[C@@H]3CCC4=CC(=O)C=C[C@]4(C)[C@@]3(F)[C@@H](O)C[C@@]21C | > 15 µM | > 15 µM | > 20 µM | > 15 µM |  |  |  |  |  |  |  |  |  |  |  |  |  |  | 
14 µM | 13.5 µM | CCCCCCCCCCCC[N+](C)(CCCCCCCCCCCC)CCNC(=O)[C@@]1(O)[C@H](C)C[C@H]2[C@@H]3CCC4=CC(=O)C=C[C@]4(C)[C@@]3(F)[C@@H](O)C[C@@]21C | > 20 µM | > 15 µM | > 15 µM | > 15 µM |  |  |  |  |  |  |  |  |  |  |  |  |  |  | 
7.2 µM | 6.5 µM | CCCCCCCC[N+](C)(CCCCCCCC)CCNC(=O)[C@@]1(O)[C@H](C)C[C@H]2[C@@H]3CCC4=CC(=O)C=C[C@]4(C)[C@@]3(F)[C@@H](O)C[C@@]21C.[Cl-] | > 15 µM | > 15 µM | > 15 µM | 6 µM | 99.3% | 0.1% | 13.1% | 18.6% | Active | 7.8% | 0% | Active | 58% | 2.5% | inactive | Active | 0% | 5.9% | Activity (B16-F10 [26]): inactive; Activity (B16-F10 [27]): Active; Activity (B16-F10 [28]): Active; Activity (B16-F10 [29]): Active; Activity (B16-F10 [30]): Active; Activity (B16-F10 [31]): Active; Activity (B16-F10 [32]): Active; Activity (B16-F10 [33]): Active; Activity (B16-F10 [34]): inactive; Activity (B16-F10 [35]): Active; Activity (B16-F10 [36]): Active; Activity (B16-F10 [37]): Active; Activity (MCF7 [38]): inactive; Activity (B16-F10 [20]): 12.5%; Activity (HEK-293T [21]): 0.5%; viability at 10 µM (MCF7 [22]): 61.5%; Activity (HEK-293T [23]): 0.1%; inhibition (B16-F10 [39]): Active; Activity (B16-F10 [24]): 27%; viability at 48 h, 10 µM [25]: 94.1%
